According to patent publication US9133183B2, “Imidazolidinones and analogs exhibiting anti-cancer and anti-proliferative activities” (Deciphera Pharmaceuticals, LLC, priority 2013, dated 2015):

Key:
[1] = target: unphosphorylated PDGFRβ kinase (uPDGFRβ, Seq. ID No. 3) (Homo sapiens (Human), UniProt P09619); test: Unphosphorylated PDGFRβ kinase assay (coupled pyruvate kinase/lactate dehydrogenase); assay type: biochemical; conditions: enzymatic assay, ATP 500 μM
Description: Unphosphorylated PDGFRβ (uPDGFRβ) Kinase (Seq. ID No. 3) Assay
Activity of unphosphorylated PDGFRβ kinase (uPDGFRβ, Seq. ID No. 3) was determined by following the production of ADP from the kinase reaction with ATP and poly E4Y as substrates through coupling with the pyruvate kinase/lactate dehydrogenase system (e.g., Schindler et al. Science (2000) 289: 1938-1942). In this assay, the oxidation of NADH (thus the decrease at A340 nm) was continuously monitored spectrophometrically. The reaction mixture (100 μL) contained PDGFRβ (DeCode, 15.7 nM), polyE4Y (2.5 mg/mL), MgCl2 (10 mM), pyruvate kinase (4 units), lactate dehydrogenase (0.7 units), phosphoenol pyruvate (1 mM) and NADH (0.28 mM) and ATP (500 μM) in a 90 mM Tris buffer containing 0.2% octyl-glucoside and 1% DMSO, at pH 7.5. The inhibition reaction was started by mixing serial diluted test compound with the above reaction mixture. The absorption at 340 nm was monitored continuously for 4 h at 30° C. on a Polarstar Optima or Synergy 2 plate reader. The reaction rate was calculated using the 1.5 to 2.5 h time frame. Percent inhibition was obtained by comparison of reaction rate with that of a control (i.e., with no test compound). IC50 values were calculated from a series of percent inhibition values determined at a range of inhibitor concentrations using software routines as implemented in the GraphPad Prism software package.
uPDGFRβ Kinase Sequence (Residues 557-1106) Used for Screening (Seq ID No. 3)

M-NFS-60 cells = test: M-NFS-60 cell proliferation assay (resazurin); assay type: cell-based; conditions: 67 h incubation
Description: M-NFS-60 cells (catalog #CRL-1838) were obtained from the American Type Culture Collection (ATCC, Manassas, Va.). Briefly, cells were grown in suspension in RPMI 1640 medium supplemented with 10% characterized fetal bovine serum (Invitrogen, Carlsbad, Calif.), 0.05 mM 2-mercaptoethanol, and 20 ng/mL mouse recombinant macrophage colony stimulating factor (M-CSF) at 37° C., 5% CO2, and 95% humidity. Cells were allowed to expand until reaching saturation at which point they were subcultured or harvested for assay use.
M-NFS-60 Cell Proliferation Assay
A serial dilution of test compound was dispensed into a 384-well black clear bottom plate (Corning, Corning, N.Y.). Two thousand five hundred cells were added per well in 50 μL complete growth medium. Plates were incubated for 67 h at 37° C., 5% CO2, and 95% humidity. At the end of the incubation period 10 μL of a 440 μM solution of resazurin (Sigma, St. Louis, Mo.) in PBS was added to each well and incubated for an additional 5 h at 37° C., 5% CO2, and 95% humidity. Plates were read on a Synergy2 reader (Biotek, Winooski, Vt.) using an excitation of 540 nm and an emission of 600 nm. IC50 values were calculated from a series of percent inhibition values determined at a range of inhibitor concentrations using software routines as implemented in the GraphPad Prism software package.

osteoclast precursors = test: Osteoclast tartrate-resistant acid phosphatase assay; assay type: cell-based; conditions: 7-14 days, RANKL and M-CSF
Description: Osteoclast Tartrate-Resistant Acid Phosphatase Assay
A serial dilution of test compound was dispensed into a 384-well black clear bottom plate (Nalge Nunc International, Rochester, N.Y.). Compound was diluted by the addition of DMEM media supplemented with 10% characterized fetal bovine serum (Invitrogen, Carlsbad, Calif.). Diluted compound was transferred to a 384-well black clear bottom plate. Two-thousand five hundred osteoclast precursors (Lonza, Walkersville, Md.) were added per well in growth media containing Receptor Activator of Nuclear Factor Kappa-beta ligand (RANKL) and M-CSF (R&D Systems, Minneapolis, Minn.). Plates were incubated for 7-14 days at 37 degrees Celsius, 5% CO2, and 95% humidity to allow differentiation of osteoclast precursors. At the end of the incubation period, 10 μL of supernatant from each well was transferred to a clear 384-well plate. Tartrate-resistant acid phosphatase activity in the supernatant samples was determined using an acid phosphatase assay kit (Sigma, St. Louis, Mo.). Absorbance was measured at 550 nm using a plate reader. Data was analyzed using Prism software (Graphpad, San Diego, Calif.) to calculate IC50 values.

[2] = target: unphosphorylated c-FMS kinase (uFMS, Seq. ID no. 1) (Homo sapiens (Human), UniProt P07333); test: uFMS kinase assay (ADP production coupled to pyruvate kinase/lactate dehydrogenase); assay type: biochemical; conditions: enzymatic assay, ATP 500 μM; read-out: uFMS
unphosphorylated c-FMS kinase (uFMS, Seq. ID no. 1), sequence (P07333 538-972): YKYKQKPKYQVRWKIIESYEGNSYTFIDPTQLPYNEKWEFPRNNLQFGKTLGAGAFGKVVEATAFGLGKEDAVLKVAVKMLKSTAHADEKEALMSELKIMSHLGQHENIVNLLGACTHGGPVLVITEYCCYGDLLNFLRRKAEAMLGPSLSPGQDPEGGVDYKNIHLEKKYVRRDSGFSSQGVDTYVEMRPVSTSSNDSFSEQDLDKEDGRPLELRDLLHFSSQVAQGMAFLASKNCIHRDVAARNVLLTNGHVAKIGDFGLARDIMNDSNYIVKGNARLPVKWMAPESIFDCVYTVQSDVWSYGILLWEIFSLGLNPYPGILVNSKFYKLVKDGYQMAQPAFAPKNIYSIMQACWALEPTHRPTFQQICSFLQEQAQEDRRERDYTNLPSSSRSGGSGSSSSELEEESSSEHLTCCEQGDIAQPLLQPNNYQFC
Description: uFMS kinase (Seq. ID No. 1) Assay
In this assay, the oxidation of NADH (thus the decrease at A340 nm) was continuously monitored spectrophometrically. The reaction mixture (100 μL) contained FMS (purchased from Millipore) (10 nM), polyE4Y (1 mg/mL), MgCl2 (10 mM), pyruvate kinase (4 units), lactate dehydrogenase (0.7 units), phosphoenol pyruvate (1 mM), NADH (0.28 mM) and ATP (500 μM) in 90 mM Tris buffer containing 0.2% octyl-glucoside and 1% DMSO, pH 7.5. The inhibition reaction was started by mixing serial diluted test compound with the above reaction mixture. The absorption at 340 nm was monitored continuously for 4 hours at 30° C. on Synergy 2 plate reader. The reaction rate was calculated using the 3 to 4 h time frame. Percent inhibition was obtained by comparison of reaction rate with that of a control (i.e., in the absence of test compound). IC50 values were calculated from a series of percent inhibition values determined at a range of inhibitor concentrations using software routines as implemented in the GraphPad Prism software package.
uFMS Kinase Sequence (Y538-End) Used for Screening (Seq. ID No. 1)

[3] = target: unphosphorylated c-KIT kinase (uKIT, Seq. ID no. 2) (Homo sapiens (Human), UniProt P10721); test: uKit kinase assay (coupled pyruvate kinase/lactate dehydrogenase); assay type: biochemical; conditions: enzymatic assay, ATP 2000 μM
unphosphorylated c-KIT kinase (uKIT, Seq. ID no. 2), sequence (P10721 other isoform, or with tags, fused parts or gaps): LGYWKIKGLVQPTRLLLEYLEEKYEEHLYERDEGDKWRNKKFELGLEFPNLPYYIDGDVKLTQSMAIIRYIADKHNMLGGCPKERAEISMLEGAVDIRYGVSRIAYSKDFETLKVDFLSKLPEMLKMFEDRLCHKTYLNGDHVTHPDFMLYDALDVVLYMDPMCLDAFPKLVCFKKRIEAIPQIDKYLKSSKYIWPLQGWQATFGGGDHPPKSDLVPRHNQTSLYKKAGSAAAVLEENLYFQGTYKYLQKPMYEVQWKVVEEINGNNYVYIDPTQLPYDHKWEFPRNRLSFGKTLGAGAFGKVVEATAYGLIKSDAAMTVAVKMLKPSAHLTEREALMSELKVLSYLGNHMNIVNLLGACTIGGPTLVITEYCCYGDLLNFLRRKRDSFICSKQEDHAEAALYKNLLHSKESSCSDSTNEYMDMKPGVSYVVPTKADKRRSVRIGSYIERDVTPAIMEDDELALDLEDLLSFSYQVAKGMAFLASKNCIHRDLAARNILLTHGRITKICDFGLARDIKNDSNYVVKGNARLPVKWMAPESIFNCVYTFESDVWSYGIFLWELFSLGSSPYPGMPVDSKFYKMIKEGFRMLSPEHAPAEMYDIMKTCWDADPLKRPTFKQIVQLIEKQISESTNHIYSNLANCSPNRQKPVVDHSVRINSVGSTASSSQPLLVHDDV
Description: uKit Kinase (Seq. ID No. 2) Assay
Activity of unphosphorylated c-KIT kinase (uKIT, Seq. ID no. 2) was determined by following the production of ADP from the KIT kinase reaction with ATP and poly E4Y as substrates through coupling with the pyruvate kinase/lactate dehydrogenase system (e.g., Schindler et al. Science (2000) 289: 1938-1942). In this assay, the oxidation of NADH (thus the decrease at A340 nm) was continuously monitored spectrophometrically. The reaction mixture (100 μl) contained unphosphorylated KIT (12 nM), polyE4Y (1 mg/mL), MgCl2 (10 mM), pyruvate kinase (4 units), lactate dehydrogenase (0.7 units), phosphoenol pyruvate (1 mM), and NADH (0.28 mM) and ATP (2000 μM) in 90 mM Tris buffer containing 0.2% octyl-glucoside and 1% DMSO, pH 7.5. The inhibition reaction was started by mixing serial diluted test compound with the above reaction mixture. The absorption at 340 nm was monitored continuously for 4 hours at 30° C. on Synergy 2 plate reader (BioTech). Reaction rates around 3 to 4 h time frame were used to calculate % inhibitions, from which IC50 values were generated.
uKit with N-Terminal GST Fusion Used for Screening (Seq ID No. 2)

unphosphorylated PDGFRβ kinase (uPDGFRβ, Seq. ID No. 3), sequence (P09619 557-1106): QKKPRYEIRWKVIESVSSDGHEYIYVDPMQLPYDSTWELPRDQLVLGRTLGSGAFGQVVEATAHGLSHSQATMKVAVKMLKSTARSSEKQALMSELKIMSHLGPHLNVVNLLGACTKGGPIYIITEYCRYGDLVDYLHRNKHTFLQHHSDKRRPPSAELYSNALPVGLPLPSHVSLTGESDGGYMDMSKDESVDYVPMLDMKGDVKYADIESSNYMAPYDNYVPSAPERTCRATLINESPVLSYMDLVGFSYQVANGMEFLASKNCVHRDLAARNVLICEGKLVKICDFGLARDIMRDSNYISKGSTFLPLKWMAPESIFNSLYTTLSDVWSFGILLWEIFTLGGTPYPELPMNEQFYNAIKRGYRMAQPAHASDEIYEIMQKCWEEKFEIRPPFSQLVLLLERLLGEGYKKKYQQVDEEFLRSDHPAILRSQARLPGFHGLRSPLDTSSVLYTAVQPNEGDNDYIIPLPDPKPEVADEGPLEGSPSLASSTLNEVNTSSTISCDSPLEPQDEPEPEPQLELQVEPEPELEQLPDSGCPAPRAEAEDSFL

Structure (SMILES)	IC50 [1] [nM]	IC50 (M-NFS-60 cells) [nM]	IC50 (osteoclast precursors; Osteoclast) [nM]	IC50 [2] [nM]	IC50 [3] [nM]	IC50 (osteoclast precursors) [nM]
COCCCN1CCN(C(=O)Nc2cc(Cl)c(Oc3ccnc(-c4cnn(C)c4)c3)cc2F)C1=O [Example 103, N-(5-chloro-2-fluoro-4-((2-(1-methyl-1H-pyrazol-4-yl)pyridin-4-yl)oxy)phenyl)-3-(3-methoxypropyl)-2-oxoimidazolidine-1-carboxamide]	> 1000	100 to 1000	100 to 1000	10 to 100	–	–
Cc1nc(NC(=O)N2CC(C)(C)N(C3CCCCC3)C2=O)ccc1Oc1ccnc(-c2cnn(C)c2)c1 [Example 32, 3-cyclohexyl-4,4-dimethyl-N-(6-methyl-5-((2-(1-methyl-1H-pyrazol-4-yl)pyridin-4-yl)oxy)pyridin-2-yl)-2-oxoimidazolidine-1-carboxamide]	> 1000	–	–	100 to 1000	100 to 1000	–
Cn1cc(-c2cc(Oc3cc(F)c(NC(=O)N4CCN(C5COC5)C4=O)cc3Cl)ccn2)cn1 [Example 104, N-(5-chloro-2-fluoro-4-((2-(1-methyl-1H-pyrazol-4-yl)pyridin-4-yl)oxy)phenyl)-3-(oxetan-3-yl)-2-oxoimidazolidine-1-carboxamide]	> 1000	> 1000	100 to 1000	100 to 1000	–	–
Cn1cc(-c2cc(Oc3cc(F)c(NC(=O)N4CCN(C5CCC(F)(F)CC5)C4=O)cc3Cl)ccn2)cn1 [Example 110, N-(5-chloro-2-fluoro-4-((2-(1-methyl-1H-pyrazol-4-yl)pyridin-4-yl)oxy)phenyl)-3-(4,4-difluorocyclohexyl)-2-oxoimidazolidine-1-carboxamide]	> 1000	10 to 100	–	< 10	–	–
Cn1cc(-c2cc(Oc3ccc(NC(=O)N4CC(C)(C)N(C5CCCCC5)C4=O)nc3)ccn2)cn1 [Example 31, 3-cyclohexyl-4,4-dimethyl-N-(5-((2-(1-methyl-1H-pyrazol-4-yl)pyridin-4-yl)oxy)pyridin-2-yl)-2-oxoimidazolidine-1-carboxamide]	> 1000	> 1000	–	10 to 100	100 to 1000	–
Cn1cc(-c2cc(Oc3cc(F)c(NC(=O)N4CCN(C5CCCCC5)C4=O)cc3Cl)ccn2)cn1 [Example 107, N-(5-chloro-2-fluoro-4-((2-(1-methyl-1H-pyrazol-4-yl)pyridin-4-yl)oxy)phenyl)-3-cyclohexyl-2-oxoimidazolidine-1-carboxamide]	100 to 1000	10 to 100	10 to 100	< 10	–	–
Cn1cc(-c2cc(Oc3cc(F)c(NC(=O)N4CCN(CCOC(F)(F)F)C4=O)cc3Cl)ccn2)cn1 [Example 106, N-(5-chloro-2-fluoro-4-((2-(1-methyl-1H-pyrazol-4-yl)pyridin-4-yl)oxy)phenyl)-2-oxo-3-(2-(trifluoromethoxy)ethyl)imidazolidine-1-carboxamide]	> 1000	> 1000	100 to 1000	10 to 100	–	–
Cn1cc(-c2cc(Oc3cc(F)c(NC(=O)N4CCN(CC(O)C(C)(C)C)C4=O)cc3Cl)ccn2)cn1 (stereo not shown) [Example 112, N-(5-chloro-2-fluoro-4-((2-(1-methyl-1H-pyrazol-4-yl)pyridin-4-yl)oxy)phenyl)-3-(2-hydroxy-3,3-dimethylbutyl)-2-oxoimidazolidine-1-carboxamide]	100 to 1000	100 to 1000	–	10 to 100	10 to 100	–
Cn1cc(-c2cc(Oc3ccc(NC(=O)N4CCN([C@@H]5CCOC5)C4=O)nc3)ccn2)cn1 [Example 27, (R)—N-(5-((2-(1-methyl-1H-pyrazol-4-yl)pyridin-4-yl)oxy)pyridin-2-yl)-2-oxo-3-(tetrahydrofuran-3-yl)imidazolidine-1-carboxamide]	> 1000	10 to 100	–	< 10	–	< 10
Cn1cc(-c2cc(Oc3cc(F)c(NC(=O)N4CCN(C5CCCC5)C4=O)cc3Cl)ccn2)cn1 [Example 111, N-(5-chloro-2-fluoro-4-((2-(1-methyl-1H-pyrazol-4-yl)pyridin-4-yl)oxy)phenyl)-3-cyclopentyl-2-oxoimidazolidine-1-carboxamide]	> 1000	10 to 100	< 10	< 10	–	–
COC(C)(C)CCN1CCN(C(=O)Nc2cc(Cl)c(Oc3ccnc(-c4cnn(C)c4)c3)cc2F)C1=O [Example 108, N-(5-chloro-2-fluoro-4-((2-(1-methyl-1H-pyrazol-4-yl)pyridin-4-yl)oxy)phenyl)-3-(3-methoxy-3-methylbutyl)-2-oxoimidazolidine-1-carboxamide]	> 1000	100 to 1000	100 to 1000	10 to 100	–	–
COC[C@H](C)N1CCN(C(=O)Nc2cc(Cl)c(Oc3ccnc(-c4cnn(C)c4)c3)cc2F)C1=O [Example 105, (S)—N-(5-chloro-2-fluoro-4-((2-(1-methyl-1H-pyrazol-4-yl)pyridin-4-yl)oxy)phenyl)-3-(1-methoxypropan-2-yl)-2-oxoimidazolidine-1-carboxamide]	> 1000	100 to 1000	10 to 100	10 to 100	–	–
